Laboratory results as given in ChEMBL document CHEMBL5331121, “Preferred Conformation-Guided Discovery of Potent and Orally Active HIF Prolyl Hydroxylase 2 Inhibitors for the Treatment of Anemia” (J Med Chem, 2023).
pIC50: −log10 of the molar value. Values belong to the compound of their own block, whether it stands above or below them. Active and inactive are the calls of the source. The rule behind the calls is not given here.

What was measured:
[1] = biological target: Egl nine homolog 1 (Homo sapiens, UniProt Q9GZT9); experiment: Binding affinity to […] PHD2 (181 to 426 residues) (unknown origin) by fluorescence polarization assay
[2] = Half life in Sprague-Dawley rat at 1 mg/kg, iv measured upto 24 hrs by LC-MS/MS analysis; format: ADME, organism-based; settings: in vivo
[3] = Apparent volume of distribution in Sprague-Dawley rat at 1 mg/kg, iv measured upto 24 hrs by LC-MS/MS analysis; format: ADME, organism-based; settings: in vivo, read-out: Vz
[4] = Clearance in Sprague-Dawley rat at 1 mg/kg, iv measured upto 24 hrs by LC-MS/MS analysis; format: ADME, organism-based; settings: in vivo
[5] = AUC(0 to infinity) in Sprague-Dawley rat at 1 mg/kg, iv measured upto 24 hrs by LC-MS/MS analysis; format: ADME, organism-based; set-up: time < 24 hrs, dose 1 mg/kg, route iv; settings: in vivo
[6] = Oral bioavailability in Sprague-Dawley rat at 10 mg/kg measured upto 24 hrs by LC-MS/MS analysis; format: ADME, organism-based; settings: in vivo
[7] = AUC(0 to t) in Sprague-Dawley rat at 1 mg/kg, iv measured upto 24 hrs by LC-MS/MS analysis; format: ADME, organism-based; set-up: dose 1 mg/kg, time < 24 hrs, route iv; settings: in vivo
[8] = Metabolic stability in rat liver microsomes assessed as clearance at 1 uM preincubated for 5 mins followed by NADPH addition and measured upto 60 mins by LC-MS/MS analysis; format: ADME, Microsome; settings: time < 65 min, read-out: CLH
[9] = tested on: Mus musculus; experiment: Upregulation of reticulocytes in C57BL/6J mouse at 10 mg/kg, po administered once daily for 3 days; format: functional, organism-based; settings: time 3.0 day
[10] = tested on: Hep 3B2; experiment: Cytotoxicity against human Hep3B cells incubated for 48 hrs by CCK-8 assay; format: toxicity, cell-based; settings: hep 3b2, 48 h
[11] = biological target: Hypoxia-inducible factor 1-alpha (Homo sapiens) (UniProt Q16665); experiment: Induction of HIF-1alpha stabilization in human Hep3B cells at 20 to 50 uM by Western blotting analysis; format: cell-based; settings: dose 20-50 µM
[12] = biological target: Endothelial PAS domain-containing protein 1 (Homo sapiens) (UniProt Q99814); experiment: Induction of HIF-2alpha stabilization in human Hep3B cells at 20 to 50 uM by Western blotting analysis; format: cell-based; settings: dose 20-50 µM
[13] = tested on: Hep 3B2; experiment: Upregulation of EPO mRNA level in human Hep3B cells incubated for 12 hrs by RT-qPCR analysis; format: functional, cell-based; settings: dose 5-20 µM
[14] = Upregulation of EPO mRNA level in human Hep3B cells assessed as fold increase at 20 uM incubated for 12 hrs by RT-qPCR analysis; format: functional, Hep 3B2
[15] = tested on: Hep 3B2; experiment: Effect on VEGFA gene expression in human Hep3B cells at 5 to 20 uM incubated for 12 hrs by RT-qPCR analysis; format: functional, cell-based; settings: dose 5-20 µM
[16] = tested on: Erythrocyte; experiment: Upregulation of reticulocytes in C57BL/6J mouse assessed as increase in RBC at 10 to 50 mg/kg, po administered once daily for 3 days; format: functional, organism-based; settings: dose 10-50 mg/kg, time 3.0 day
[17] = Tmax in Sprague-Dawley rat at 10 mg/kg, po measured upto 24 hrs by LC-MS/MS analysis; format: ADME, organism-based; settings: in vivo
[18] = Cmax in Sprague-Dawley rat at 10 mg/kg, po measured upto 24 hrs by LC-MS/MS analysis; format: ADME, organism-based; set-up: time < 24 hrs, dose 10 mg/kg, route po; settings: in vivo
[19] = AUC(0 to t) in Sprague-Dawley rat at 10 mg/kg, po measured upto 24 hrs by LC-MS/MS analysis; format: ADME, organism-based; set-up: time < 24 hrs, dose 10 mg/kg, route po; settings: in vivo
[20] = AUC(0 to infinity) in Sprague-Dawley rat at 10 mg/kg, po measured upto 24 hrs by LC-MS/MS analysis; format: ADME, organism-based; set-up: dose 10 mg/kg, time < 24 hrs, route po; settings: in vivo
[21] = Clearance in Sprague-Dawley rat at 10 mg/kg, po measured upto 24 hrs by LC-MS/MS analysis; format: ADME, organism-based; settings: in vivo
[22] = Apparent volume of distribution in Sprague-Dawley rat at 10 mg/kg, po measured upto 24 hrs by LC-MS/MS analysis; format: ADME, organism-based; settings: in vivo
[23] = Mean residence time (0 to infinity) in Sprague-Dawley rat at 10 mg/kg, po measured upto 24 hrs by LC-MS/MS analysis; format: ADME, organism-based; settings: in vivo
[24] = Mean residence time (0 to infinity) in Sprague-Dawley rat at 1 mg/kg, iv measured upto 24 hrs by LC-MS/MS analysis; format: ADME, organism-based; settings: in vivo
[25] = Tmax in mouse at 10 mg/kg, po measured upto 24 hrs by LC-MS/MS analysis; format: ADME, organism-based; settings: in vivo
[26] = Cmax in mouse at 10 mg/kg, po measured upto 24 hrs by LC-MS/MS analysis; format: ADME, organism-based; set-up: time < 24 hrs, dose 10 mg/kg, route po; settings: in vivo
[27] = AUC(0 to t) in mouse at 10 mg/kg, po measured upto 24 hrs by LC-MS/MS analysis; format: ADME, organism-based; set-up: dose 10 mg/kg, time < 24 hrs, route po; settings: in vivo
[28] = AUC(0 to infinity) in mouse at 10 mg/kg, po measured upto 24 hrs by LC-MS/MS analysis; format: ADME, organism-based; set-up: dose 10 mg/kg, time < 24 hrs, route po; settings: in vivo
[29] = Half life in mouse at 10 mg/kg, po measured upto 24 hrs by LC-MS/MS analysis; format: ADME, organism-based; settings: in vivo
[30] = Clearance in mouse at 10 mg/kg, po measured upto 24 hrs by LC-MS/MS analysis; format: ADME, organism-based; settings: in vivo
[31] = Apparent volume of distribution in mouse at 10 mg/kg, po measured upto 24 hrs by LC-MS/MS analysis; format: ADME, organism-based; settings: in vivo
[32] = Mean residence time (0 to infinity) in mouse at 10 mg/kg, po measured upto 24 hrs by LC-MS/MS analysis; format: ADME, organism-based; settings: in vivo
[33] = Oral bioavailability in mouse at 10 mg/kg measured upto 24 hrs by LC-MS/MS analysis; format: ADME, organism-based; settings: in vivo
[34] = AUC(0 to t) in mouse at 1 mg/kg, iv measured upto 24 hrs by LC-MS/MS analysis; format: ADME, organism-based; set-up: time < 24 hrs, dose 1 mg/kg, route iv; settings: in vivo
[35] = AUC(0 to infinity) in mouse at 1 mg/kg, iv measured upto 24 hrs by LC-MS/MS analysis; format: ADME, organism-based; set-up: time < 24 hrs, dose 1 mg/kg, route iv; settings: in vivo
[36] = Half life in mouse at 1 mg/kg, iv measured upto 24 hrs by LC-MS/MS analysis; format: ADME, organism-based; settings: in vivo
[37] = Clearance in mouse at 1 mg/kg, iv measured upto 24 hrs by LC-MS/MS analysis; format: ADME, organism-based; settings: in vivo
[38] = Apparent volume of distribution in mouse at 1 mg/kg, iv measured upto 24 hrs by LC-MS/MS analysis; format: ADME, organism-based; settings: in vivo, read-out: Vz
[39] = Mean residence time (0 to infinity) in mouse at 1 mg/kg, iv measured upto 24 hrs by LC-MS/MS analysis; format: ADME, organism-based; settings: in vivo
[40] = Toxicity in ICR mouse assessed as animal death at 800 mg/kg, po; format: organism-based; settings: in vivo
[41] = Toxicity in ICR mouse assessed as behavioral abnormalities at 50 to 200 mg/kg, po administered every other day for 14 days; format: organism-based; settings: in vivo, 336 h, dose 50-200 mg/kg, time 14 day
[42] = Toxicity in ICR mouse assessed as effect on body weight at 50 to 200 mg/kg, po administered every other day for 14 days; format: organism-based; settings: in vivo, 336 h, dose 50-200 mg/kg, time 14 day
[43] = Toxicity in ICR mouse assessed as effect on food intake at 50 to 200 mg/kg, po administered every other day for 14 days; format: organism-based; settings: in vivo, 336 h, dose 50-200 mg/kg, time 14 day
[44] = Toxicity in ICR mouse assessed as change in heart to body weight ratio at 50 to 200 mg/kg, po administered every other day for 14 days; format: organism-based; settings: in vivo, 336 h, dose 50-200 mg/kg, time 14 day
[45] = Toxicity in ICR mouse assessed as change in liver to body weight ratio at 50 to 200 mg/kg, po administered every other day for 14 days; format: organism-based; settings: in vivo, 336 h, dose 50-200 mg/kg, time 14 day
[46] = Toxicity in ICR mouse assessed as change in spleen to body weight ratio at 50 to 200 mg/kg, po administered every other day for 14 days; format: organism-based; settings: in vivo, 336 h, dose 50-200 mg/kg, time 14 day
[47] = Toxicity in ICR mouse assessed as change in lungs to body weight ratio at 50 to 200 mg/kg, po administered every other day for 14 days; format: organism-based; settings: in vivo, 336 h, dose 50-200 mg/kg, time 14 day
[48] = Toxicity in ICR mouse assessed as change in kidney to body weight ratio at 50 to 200 mg/kg, po administered every other day for 14 days; format: organism-based; settings: in vivo, 336 h, dose 50-200 mg/kg, time 14 day
[49] = Toxicity in ICR mouse assessed as heart damage at 50 to 200 mg/kg, po administered every other day for 14 days; format: organism-based; settings: in vivo, 336 h, dose 50-200 mg/kg, time 14 day
[50] = Toxicity in ICR mouse assessed as liver damage at 50 to 200 mg/kg, po administered every other day for 14 days; format: organism-based; settings: in vivo, 336 h, dose 50-200 mg/kg, time 14 day
[51] = Toxicity in ICR mouse assessed as spleen damage at 50 to 200 mg/kg, po administered every other day for 14 days; format: organism-based; settings: in vivo, 336 h, dose 50-200 mg/kg, time 14 day
[52] = Toxicity in ICR mouse assessed as lung damage at 50 to 200 mg/kg, po administered every other day for 14 days; format: organism-based; settings: in vivo, 336 h, dose 50-200 mg/kg, time 14 day
[53] = Toxicity in ICR mouse assessed as kidney damage at 50 to 200 mg/kg, po administered every other day for 14 days; format: organism-based; settings: in vivo, 336 h, dose 50-200 mg/kg, time 14 day
[54] = Hepatotoxicity in ICR mouse at 50 to 200 mg/kg, po administered every other day for 14 days; format: toxicity, organism-based; settings: in vivo, 336 h, dose 50-200 mg/kg, time 14 day
[55] = Nephrotoxicity in ICR mouse at 50 to 200 mg/kg, po administered every other day for 14 days; format: toxicity, organism-based; settings: in vivo, 336 h, dose 50-200 mg/kg, time 14 day

Chain of Egl nine homolog 1 (Q9GZT9 whole entry, the tested form may be a part): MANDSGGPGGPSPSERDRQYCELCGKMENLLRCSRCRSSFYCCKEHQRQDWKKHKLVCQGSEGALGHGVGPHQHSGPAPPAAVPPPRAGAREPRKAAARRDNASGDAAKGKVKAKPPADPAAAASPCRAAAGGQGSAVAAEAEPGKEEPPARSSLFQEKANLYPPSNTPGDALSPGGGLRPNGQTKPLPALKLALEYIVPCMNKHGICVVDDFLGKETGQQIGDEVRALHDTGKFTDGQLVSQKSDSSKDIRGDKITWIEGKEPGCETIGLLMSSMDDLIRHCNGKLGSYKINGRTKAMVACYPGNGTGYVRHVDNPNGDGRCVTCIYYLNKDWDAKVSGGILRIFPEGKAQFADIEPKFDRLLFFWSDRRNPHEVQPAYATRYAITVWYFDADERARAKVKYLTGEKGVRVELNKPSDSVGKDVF
Chain of Hypoxia-inducible factor 1-alpha (Homo sapiens) (Q16665 whole entry, looked up, the tested form may be a part): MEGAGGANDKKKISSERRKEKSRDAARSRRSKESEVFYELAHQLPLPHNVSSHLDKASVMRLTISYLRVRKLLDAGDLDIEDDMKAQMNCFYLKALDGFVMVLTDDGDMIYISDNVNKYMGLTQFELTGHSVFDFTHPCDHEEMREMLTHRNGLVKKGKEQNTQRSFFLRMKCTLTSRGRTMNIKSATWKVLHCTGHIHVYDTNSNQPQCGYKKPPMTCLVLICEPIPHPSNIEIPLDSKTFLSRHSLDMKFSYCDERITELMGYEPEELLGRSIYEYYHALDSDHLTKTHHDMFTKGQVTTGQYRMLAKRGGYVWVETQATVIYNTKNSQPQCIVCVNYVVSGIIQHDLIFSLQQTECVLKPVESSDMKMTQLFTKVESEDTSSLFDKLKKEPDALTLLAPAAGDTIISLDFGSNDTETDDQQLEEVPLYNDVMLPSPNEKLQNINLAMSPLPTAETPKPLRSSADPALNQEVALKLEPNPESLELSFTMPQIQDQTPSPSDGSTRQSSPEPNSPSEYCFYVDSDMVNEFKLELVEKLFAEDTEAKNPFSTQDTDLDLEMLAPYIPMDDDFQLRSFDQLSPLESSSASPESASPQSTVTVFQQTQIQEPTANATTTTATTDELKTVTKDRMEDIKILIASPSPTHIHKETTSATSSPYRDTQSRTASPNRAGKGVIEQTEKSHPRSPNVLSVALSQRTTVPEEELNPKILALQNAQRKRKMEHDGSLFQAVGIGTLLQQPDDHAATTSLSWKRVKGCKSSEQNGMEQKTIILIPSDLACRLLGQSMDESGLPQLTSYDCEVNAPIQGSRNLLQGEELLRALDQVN
Chain of Endothelial PAS domain-containing protein 1 (Homo sapiens) (Q99814 whole entry, the tested form may be a part): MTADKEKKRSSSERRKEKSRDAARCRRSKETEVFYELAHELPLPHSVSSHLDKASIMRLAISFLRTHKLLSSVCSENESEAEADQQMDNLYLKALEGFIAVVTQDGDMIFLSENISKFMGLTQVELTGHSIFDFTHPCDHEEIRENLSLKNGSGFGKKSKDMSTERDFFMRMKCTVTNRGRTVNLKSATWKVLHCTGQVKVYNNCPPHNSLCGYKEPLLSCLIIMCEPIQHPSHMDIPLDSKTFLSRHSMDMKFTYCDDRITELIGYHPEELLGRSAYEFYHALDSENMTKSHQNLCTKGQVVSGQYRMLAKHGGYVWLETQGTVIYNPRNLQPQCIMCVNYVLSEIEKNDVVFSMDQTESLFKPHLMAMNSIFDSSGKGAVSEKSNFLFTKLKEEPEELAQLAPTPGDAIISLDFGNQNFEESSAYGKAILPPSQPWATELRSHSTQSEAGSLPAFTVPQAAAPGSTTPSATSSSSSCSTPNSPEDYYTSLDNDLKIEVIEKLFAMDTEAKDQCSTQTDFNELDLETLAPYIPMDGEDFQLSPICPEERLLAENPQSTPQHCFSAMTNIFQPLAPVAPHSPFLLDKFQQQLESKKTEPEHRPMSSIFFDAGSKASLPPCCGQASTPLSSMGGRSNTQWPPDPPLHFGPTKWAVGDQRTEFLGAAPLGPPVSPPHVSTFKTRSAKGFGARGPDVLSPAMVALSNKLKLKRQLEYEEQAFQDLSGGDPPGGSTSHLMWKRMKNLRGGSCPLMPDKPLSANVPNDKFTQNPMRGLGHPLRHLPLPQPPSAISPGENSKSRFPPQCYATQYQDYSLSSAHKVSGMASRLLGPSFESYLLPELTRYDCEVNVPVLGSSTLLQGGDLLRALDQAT

pIC50 [1]: 7.40
SMILES: O=C(O)CNC(=O)c1ncc(C2CCN(C(=O)CNc3ccc(OC(F)(F)F)cc3)CC2)cc1O

pIC50 [1]: 7.27
SMILES: COc1ccc(C(=O)N2CCC(c3cnc(C(=O)NCC(=O)O)c(O)c3)CC2)cc1

SMILES: O=C(O)CNC(=O)c1ncc(C2CCN(C(=O)CNc3ccc(Cl)cc3)CC2)cc1O
half-life [2]: 223 min
Vd [3]: 2.64 L/kg
clearance [4]: 8.05 mL/min/kg
AUC(0-inf) [5]: 2110 ng·h/mL
bioavailability [6]: 33.9%
AUC(0-t) at 24 h [7]: 2060 ng·h/mL
pIC50 [1]: 7.65
microsomal CLint at 1 µM [8]: 3.8 µL/min/mg
Activity [9]: Active
Activity [10]: Non-Toxic
Activity [11]: Active
Activity [12]: Active
Activity [13]: Dose-Dependent Effect
fold change (FC) [14]: 11
Activity [15]: inactive
Activity [16]: Dose-Dependent Effect
Tmax [17]: 4.8 min
Cmax [18]: 26100 ng/mL
AUC(0-t) at 24 h [19]: 7120 ng·h/mL
AUC(0-inf) [20]: 7140 ng·h/mL
CL/F [21]: 23.6 mL/min/kg
Vz [22]: 4.692 L/kg
MRT inf [23]: 33.6 min
MRT inf [24]: 92.4 min
Tmax [25]: 30 min
Cmax [26]: 3040 ng/mL
AUC(0-t) at 24 h [27]: 4480 ng·h/mL
AUC(0-inf) [28]: 4490 ng·h/mL
half-life [29]: 70.2 min
CL/F [30]: 37.4 mL/min/kg
Vz [31]: 4.532 L/kg
MRT inf [32]: 100 min
bioavailability [33]: 35.3%
AUC(0-t) at 24 h [34]: 1380 ng·h/mL
AUC(0-inf) [35]: 1390 ng·h/mL
half-life [36]: 19.8 min
clearance [37]: 12 mL/min/kg
Vd [38]: 0.345 L/kg
MRT inf [39]: 31.8 min
Activity [40]: Non-Toxic
Activity [41]: Non-Toxic
Activity [42]: Non-Toxic
Activity [43]: Non-Toxic
Activity [44]: Non-Toxic
Activity [45]: Non-Toxic
Activity [46]: Non-Toxic
Activity [47]: Non-Toxic
Activity [48]: Non-Toxic
Activity [49]: Non-Toxic
Activity [50]: Non-Toxic
Activity [51]: Non-Toxic
Activity [52]: Non-Toxic
Activity [53]: Non-Toxic
Activity [54]: Non-Toxic
Activity [55]: Non-Toxic

pIC50 [1]: 7.64
SMILES: O=C(O)CNC(=O)c1ncc(-c2cn(CCCc3ccc(Cl)cc3)nn2)cc1O
